The values that follow are results of earlier work, collected in patent publication US20130345262A1, “METHOD FOR PREVENTION OF STROKE” (BOEHRINGER INGELHEIM INTERNATIONAL GMBH, priority 2012, published 2013).

The data set concerns patients who have nonvalvular atrial fibrillation. To be noted: patients with nonvalvular atrial fibrillation.

The structures appear in SMILES notation.

Take `CC(=O)CC(c1ccccc1)c1c(O)c2ccccc2oc1=O` (racemic) [warfarin, 3-(α-acetonylbenzyl)4-hydroxycoumarin]: the “reduction of the risk of stroke compared to placebo” value is on record as “about 64%”.
